Data set [1] can be described thus: Sensory evaluation of sweetener powder by 15 panelists. Type of data set: in vivo. The following applies: score on a scale of 5 points, 10% Brix solution. The procedure:
For the sensory evaluation, the powders prepared in Examples 5 and 6 were used as an experimental group, and sugar was used as a control group. Each sample was dissolved to a concentration of 10% Brix and prepared to become the same temperature. 10 ml of each sample was collected and provided. It was expressed as a three-digit number randomly extracted using a random number table. The sample presentation order was always randomly determined, and a lukewarm water that could rinse the mouth was provided together to inspectors. The sensory laboratory was maintained at a constant temperature (25±1° C.) and no odor.
The sensory inspectors selected 15 panelists who have a high level of understanding of sensory tests and have experience in sensory tests. Training was conducted three times a week for one month, and it took an average of 30 minutes for each training session. As for the content and method of evaluation, the score was evaluated on a scale of 5 points for the intensity of sweet taste, persistence of sweet taste, body taste, and bitter taste of the control group and the experimental group. The criteria of sweet taste intensity was compared with the standard sample sugar 10% solution as 4.5 points. The closer to 1 point, the lighter the body taste, and the closer to 5 points, the heavier the taste was.

Data set [2] is described as follows: Glass transition temperature (Tg) by differential scanning calorimetry (DSC), ASTM D3418. Type of data set: physicochemical. Particulars: raw material: crystalline allulose in powder state. The procedure:
In order to measure the glass transition temperature value (Tg) of the powder product obtained in Examples 1 to 4, and Example 6, differential scanning calorimetry (DSC) analysis was performed according to the method of ASTM D3418, and the specific DSC analysis conditions are as follows.
Equipment name: DSC[differential scanning calorimetry]
Manufacturer: Perkin Elmer
Method: 30 to 250° C., 10° C./min temperature rise, N2 gas purge
The liquid product of Comparative Example 1 was not spray-dried, and measured by the glass transition temperature of the powder obtained by freeze-drying the liquid product. Allulose was measured by the glass transition temperature of crystalline allulose, Reference Example 2 was measured by the glass transition temperature of commercially available indigestible maltodextrin (Samyang Corporation, indigestible maltodextrin, DE 14.9, dietary fiber content 85%), and Reference Example 3 and Reference Example 4 were measured by pulverizing commercially available maltodextrin (Samyang Corporation., Genedex) and commercially available starch syrup (Samyang Corporation, low-intensity starch syrup) at the glass transition temperature.
A general note: DSC measures the heat that a sample takes up or gives off during a temperature scan.

These results are taken from patent publication US20210244057A1, “SWEETENER POWDER COMPOSITION AND PREPARATION METHOD THEREFOR” (SAMYANG CORPORATION, priority 2018, published 2021).

With `OC[C@H]1O[C@@](CO)(O[C@H]2O[C@H](CO)[C@@H](O)[C@H](O)[C@H]2O)[C@@H](O)[C@@H]1O` [Control group, sugar], the Body taste in data set [1] (1 = lighter, 5 = heavier) was 3.3. In data set [1], this compound gave a Bitter residual taste of 2.2 and a Sweet taste persistence of 3.2. Further, the Sweet taste in data set [1] (sugar 10% solution standard = 4.5 points) turned out to be 4.3.
For the compound `O=C(CO)C(O)C(O)C(O)CO` (centres unmarked) [Crystalline allulose, allulose], in data set [2], the Tg was −5.5 °C.
